# PubChem BioAssay (NCI)
#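 Tested at 5 concentrations; 48 h exposure; 96-well plates; endpoints linearly interpolated, else capped at highest concentration. GI50: concentration for 50% inhibition of growth. TGI is the concentration that stops growth completely.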
# Legend:
# Assay in all cases: NCI-60 cell line screen, 48 h
# CCRF-CEM leukemia = tested on: CCRF-CEM leukemia
# DMS 273 small cell lung = tested on: DMS 273 small cell lung
# RXF 393 renal = tested on: RXF 393 renal
# UO-31 renal = tested on: UO-31 renal
# OVCAR-5 ovarian = tested on: OVCAR-5 ovarian
# NCI-H460 lung = tested on: NCI-H460 lung
# SNB-19 CNS = tested on: SNB-19 CNS
# K-562 leukemia = tested on: K-562 leukemia
# UACC-62 melanoma = tested on: UACC-62 melanoma
# LXFL 529 NSCLC = tested on: LXFL 529 NSCLC
# SNB-78 CNS = tested on: SNB-78 CNS
# DLD-1 colon = tested on: DLD-1 colon
SMILES,TGI (CCRF-CEM leukemia) [µM],TGI (DMS 273 small cell lung) [µM],TGI (RXF 393 renal) [µM],TGI (UO-31 renal) [µM],TGI (OVCAR-5 ovarian) [µM],TGI (NCI-H460 lung) [µM],TGI (SNB-19 CNS) [µM],TGI (K-562 leukemia) [µM],TGI (UACC-62 melanoma) [µM],TGI (LXFL 529 NSCLC) [µM],TGI (SNB-78 CNS) [µM],TGI (DLD-1 colon) [µM],GI50 (CCRF-CEM leukemia) [µM],GI50 (RXF 393 renal) [µM],GI50 (UO-31 renal) [µM],GI50 (OVCAR-5 ovarian) [µM],GI50 (NCI-H460 lung) [µM],GI50 (SNB-19 CNS) [µM],GI50 (K-562 leukemia) [µM],GI50 (UACC-62 melanoma) [µM]
CC(C)=CC(=O)Cc1nc2ccccc2[nH]c1=O,> 100,> 100,79.2,> 100,> 100,> 100,> 100,> 100,> 100,> 100,> 100,> 100,–,–,–,–,–,–,–,–
O=S(=O)(O)C(F)(F)C(F)(F)C(F)(F)C(F)(F)F,> 100,> 100,> 100,> 100,> 100,> 100,> 100,> 100,> 100,> 100,–,> 100,–,–,–,–,–,–,–,–
CCN=C1NN=C(c2ccccc2)c2cc(Cl)ccc2N1,> 100,26.2,58,70.2,60.9,–,> 100,> 100,31.7,–,72,–,–,–,–,–,–,–,–,–
CCNC(=O)C(O)C1(O)CCC2[C@@H]3CCC4=CC(=O)C=C[C@]4(C)C3[C@@H](O)C[C@@]21C (stereo not given in full),> 100,> 100,> 100,> 100,> 100,> 100,> 100,> 100,> 100,> 100,> 100,> 100,–,–,–,–,–,–,–,–
COc1ccccc1NC(=O)CC(=O)n1nc(C)c(N=Nc2ccccc2F)c1C,–,> 100,> 100,> 100,> 100,> 100,> 100,> 31.6,> 100,> 100,> 31.6,> 100,–,–,–,–,–,–,–,–
CCCOc1ccc(/C=C\c2cc(OC)c(OC)c(OC)c2)cc1,> 100,> 100,> 100,> 100,60.9,> 100,> 100,> 100,> 100,> 100,> 100,> 100,–,–,–,–,–,–,–,–
N#CCCc1nc2ccc(Br)cc2c(=O)n1-c1ccc(O)c([N+](=O)[O-])c1,71.7,–,32.4,78.9,> 100,66.9,–,61.9,38.5,40,76.7,34.7,–,–,–,–,–,–,–,–
COC(=O)c1c/c(=N\NC(=O)CC(=O)Nc2ccccc2Cl)c2ccccc2o1,–,> 100,–,> 100,> 100,> 100,> 100,> 100,> 100,> 100,> 100,> 100,–,–,–,–,–,–,–,–
CCCCCCCCCCCCCCCC(=O)NC1CCc2cc(O)c(O)c(O)c2-c2ccc(SC)c(=O)cc21 (stereo not given),46.2,16.4,7.66,22.6,26.8,19.6,23.4,> 40.7,10.9,8.04,28.2,22.4,–,–,–,–,–,–,–,–
COc1ncnc2c(NC3OC(CO)C(O)C3O)ncnc12 (stereo not given),1.57,5.74,12.7,> 21.9,> 35.6,> 83.5,74,–,6.66,83.4,71.9,33.7,–,–,–,–,–,–,–,–
O=[N+]([O-])c1ccc(Cc2nc3ccccc3s2)cc1,> 100,> 100,> 100,> 100,> 100,> 100,> 100,> 100,> 100,> 100,> 100,> 100,–,–,–,–,–,–,–,–
C=CCOc1cc2c(cc1C(C)c1ccc(OC)cc1)OCO2 (stereo not given),> 31.7,> 100,0.485,> 87.8,> 100,–,> 100,> 100,> 87.5,63.9,> 100,> 100,–,–,–,–,–,–,–,–
O=C(CC(=O)Nc1ccc(Cl)cc1)NNCC(=O)Nc1nc(-c2ccccc2)cs1,> 100,> 100,> 100,–,–,> 100,> 100,> 100,> 100,> 100,> 100,> 100,–,–,–,–,–,–,–,–
COc1ccc(C2(CN(C)C)COc3cc(OC)c(OC)cc3C2=O)cc1OC (stereo not given),58.1,–,79.2,> 100,–,> 100,> 100,> 100,> 100,48.8,> 100,44.6,–,–,–,–,–,–,–,–
C/C(=N\NC(N)=S)c1ccc2c(c1)OCO2,> 100,–,> 100,> 100,> 100,> 100,> 100,> 100,> 100,> 100,> 100,> 100,–,–,–,–,–,–,–,–
Clc1ccc(C2=Nc3ccccc3SC(c3ccc(Cl)c(Cl)c3)C2)c(Cl)c1 (stereo not given),17.1,30,30.5,28.1,32.1,34.4,40,22.3,29.4,29.2,35.5,25.6,–,–,–,–,–,–,–,–

SMILES,TGI (CCRF-CEM leukemia) [µM],TGI (DMS 273 small cell lung) [µM],TGI (RXF 393 renal) [µM],TGI (UO-31 renal) [µM],TGI (OVCAR-5 ovarian) [µM],TGI (NCI-H460 lung) [µM],TGI (SNB-19 CNS) [µM],TGI (K-562 leukemia) [µM],TGI (UACC-62 melanoma) [µM],TGI (LXFL 529 NSCLC) [µM],TGI (SNB-78 CNS) [µM],TGI (DLD-1 colon) [µM],GI50 (CCRF-CEM leukemia) [µM],GI50 (RXF 393 renal) [µM],GI50 (UO-31 renal) [µM],GI50 (OVCAR-5 ovarian) [µM],GI50 (NCI-H460 lung) [µM],GI50 (SNB-19 CNS) [µM],GI50 (K-562 leukemia) [µM],GI50 (UACC-62 melanoma) [µM]
Cc1ccccc1C(C#N)/C(=N/NC(=O)c1cc2ccccc2cc1O)C(=O)Nc1cccc(Cl)c1 (stereo not given),> 100,32.5,–,8.4,51.2,> 100,> 100,> 100,18.1,> 100,> 100,> 100,–,–,–,–,–,–,–,–
CCOC(=O)/C(C#N)=C(O)/C(=C/c1ccccc1Cl)NC(=O)c1ccccc1,> 100,> 100,–,> 100,> 100,> 100,> 100,> 100,> 100,> 100,> 100,> 100,–,–,–,–,–,–,–,–
O=C1C(NCCO)=C(N2CC2)C(=O)C(NCCO)=C1N1CC1,55.9,> 40,> 100,> 88,> 100,> 66.2,> 100,84.7,99.5,> 92.9,> 100,> 68.8,–,–,–,–,–,–,–,–
O=C1CCC(c2nc3ccccc3o2)C(=O)N1 (stereo not given),> 100,> 100,> 100,> 100,–,> 100,> 100,> 100,> 100,> 100,> 100,> 100,–,–,–,–,–,–,–,–
CN1C(c2ccccc2)CC(=Nc2ccccc2)CC1c1ccccc1 (stereo not given),> 100,22,31.4,47.8,–,33.9,27.8,> 100,–,16.4,37.2,24.2,–,–,–,–,–,–,–,–
COc1cc2c(cc1OC)-c1c(cnn1C1OC(COC(C)=O)C(OC(C)=O)C(OC(C)=O)C1OC(C)=O)CC2 (stereo not given),> 100,> 100,–,> 100,> 100,> 100,> 100,> 100,> 100,> 100,> 100,> 100,–,–,–,–,–,–,–,–
O=C(Nc1ccc(C(F)(F)F)cc1[N+](=O)[O-])C(=O)C(C(=O)c1ccc2ccccc2c1)C1OC(=O)c2ccccc21 (stereo not given),35.5,–,10.1,28.8,26.5,15.6,22.5,47.8,20.4,20.9,35.4,26.7,–,–,–,–,–,–,–,–
N=C(c1ccccc1)N1CCCCC1,–,> 100,> 100,> 100,> 100,> 100,> 100,–,–,> 100,> 100,> 100,–,–,–,–,–,–,–,–
COC(=O)c1nc(-c2ccc(Cl)c(Cl)c2)nc2ccccc12,> 100,> 100,42.9,> 100,> 100,> 100,79.5,> 100,> 100,> 100,> 100,> 100,–,–,–,–,–,–,–,–
O=[N+]([O-])c1cccc(-c2nc3sccn3c2-c2ccnc(NCCCNS(=O)(=O)c3ccc(F)cc3)n2)c1,7.81,–,> 100,8.39,> 100,> 100,> 100,> 100,4.21,–,–,–,1.2,6.95,1.4,5.63,2.94,4.01,1.62,1.2
Cc1ccc2sc3cc(=O)cc(C)c-3nc2c1,93.8,> 100,–,> 100,> 100,> 100,> 100,> 100,36,> 100,> 100,> 100,–,–,–,–,–,–,–,–
Cc1cc2c(C(C)C)c(O)c(O)c3coc(/c1=c1/c(C)cc4c(C(C)C)c(=O)c(=O)c5coc1c45)c32,16.6,13.8,23.1,31.1,32.4,16.2,15.6,16.5,13.5,12.7,25.2,16.4,–,–,–,–,–,–,–,–
COc1cc2c(cc1OCCCCCOc1cc(-c3ccc(F)cc3)nc(C)n1)N=C[C@@H]1CCCN1C2=O,> 45.2,–,> 54.3,> 59,> 100,> 58.5,> 100,> 66.4,> 56.2,–,–,–,–,> 32.9,> 28.3,> 100,> 36,> 46.2,> 21.6,> 38.1
CC(=O)/C=C1/c2ccccc2N(C(C)=O)C1O (stereo not given),> 100,> 100,> 100,> 100,–,> 100,> 100,> 100,> 100,> 100,> 100,> 100,–,–,–,–,–,–,–,–
CN(C)c1cccc2[nH]c(-c3[nH]ncc3Nc3ccnc(N)n3)nc12,4.48,–,< 0.0168,0.276,1.9,1.05,1.77,1.52,0.0701,–,–,–,< 0.0118,< 0.01,< 0.0142,0.023,0.054,0.0152,0.0167,0.0136
